In patent US20150299125A1, “PRODRUG BIPYRIDYLAMINOPYRIDINES AS SYK INHIBITORS” (MERCK SHARP & DOHME CORP., priority 2012, published 2015):
Converted amounts (≈) assume the structure as drawn.

Columns and labels:
[1] = biological target: T1, recombinant human GST-Syk (Homo sapiens, UniProt P43405); assay: Homogeneous Time-Resolved Fluorescence (HTRF) assay for the recombinant human Syk enzyme; type: biochemical; settings: recombinant human GST-Syk 5 pM, ATP 25 μM, read-out: IC50
T1 construct: purchased Carna Biosciences 08-176
Protocol: Syk inhibition of the compounds of Formula (I) may be determined using the following assay protocol: Homogeneous Time-Resolved Fluorescence (HTRF) Assay for the Recombinant Human Syk Enzyme: A recombinant GST-hSyk fusion protein was used to measure potency of compounds to inhibit human Syk activity. […] Final volume of the reaction was 10 μL. Phosphorylation of the peptide was allowed to proceed for 45' at room temperature. To quench the reaction and detect the phosphorylated product, 2 nM of a Europium-anti-phosphotyrosine antibody (Perkin Elmer #AD0161) and 70 nM SA-APC (Perkin-Elmer #CR130-100) were added together in 15 mM Tris pH 7.5, 40 mM EDTA, 0.01% tween 20. Final volume of the quenching solution was 10 μL. The resulting HTRF signal was measured after 30 minutes on a EnVision (Perkin-Elmer) reader using a time-resolved fluorescence protocol.

[2] = Solubility in biorelevant fasted state simulated intestinal fluid (FaSSIF); type: physicochemical; settings: 25 °C, fassif, kinetic from dmso stock, Solubility
Protocol: Solubility in Biorelevant Fasted State Simulated Intestinal Fluid (FaSSIF):
A 10 mM DMSO stock solution of compound to be tested is used. A 100 μM standard solution is generated by diluting 2.5 μL of the 10 mM stock solution with 247.5 μL of diluent (10% DMSO/10% MeCN/80% MeOH, v/v/v). A solubility solution is generated by diluting 5 μL of the 10 mM stock solution with 245 μL of FaSSIF (maximum solubility approximately 200 μM). […] The equilibrated solubility solution is filtered by centrifugation (3 minutes at 4000 rpm) using a 0.45 µm filter with a polypropylene membrane. The standard solution and the filtered equilibrated solubility solution are analyzed by HPLC/DAD. The solubility value is calculated by the following equation:
Solubility=(Peak area of sample/Peak area of standard)(Standard concentration)

CC[N+]1(COC(=O)[C@H]2CC[C@H]([C@@](C)(O)c3ccc(-c4cc(C)cc(Nc5cc(C(F)F)ccn5)n4)cn3)CC2)CCCCC1 [Example 5-14, 1-{[({trans-4-[(1R)-1-(6-{[4-(difluoromethyl)pyridin-2-yl]amino}-4-methyl-2,3′-bipyridin-6′-yl)-1-hydroxyethyl]cyclohexyl}carbonyl)oxy]methyl}-1-ethylpiperidinium]
IC50 [1]: 2.3 nM
solubility [2]: 200 µM

CCN(CC)C(=O)N1CC[N+](C)(COC(=O)[C@H]2CC[C@H]([C@@](C)(O)c3ccc(-c4cc(C)cc(Nc5cc(C(F)F)ccn5)n4)cn3)CC2)CC1 [Example 5-12, 4-(diethylcarbamoyl)-1-{[({trans-4-[(1R)-1-(6-{[4-(difluoromethyl)pyridin-2-yl]amino}-4-methyl-2,3′-bipyridin-6′-yl)-1-hydroxyethyl]cyclohexyl}carbonyl)oxy]methyl}-1-methylpiperazin-1-ium]
IC50 [1]: < 0.5 nM
solubility [2]: 55 µM

Cc1cc(Nc2cc(C(F)F)ccn2)nc(-c2ccc([C@](C)(O)[C@H]3CC[C@H](C(=O)OCOC(=O)[C@@H](O)Cc4ccc(O)cc4)CC3)nc2)c1 [Example 3-6, {[(2S)-2-hydroxy-3-(4-hydroxyphenyl)propanoyl]oxy}methyl trans-4-[(1R)-1-(6-{[4-(difluoromethyl)pyridin-2-yl]amino}-4-methyl-2,3′-bipyridin-6′-yl)-1-hydroxyethyl]cyclohexane carboxylate]
IC50 [1]: 4.1 nM
solubility [2]: 89 µM (≈ 60.2 µg/mL)

Cc1cc(Nc2cc(C(F)F)ccn2)nc(-c2ccc([C@](C)(O)[C@H]3CC[C@H](C(=O)OCc4nccn4C)CC3)nc2)c1 [Example 1-11, (1-methyl-1H-imidazol-2-yl)methyl trans-4-[(1R)-1-(6-{[4-(difluoromethyl)pyridin-2-yl]amino}-4-methyl-2,3′-bipyridin-6′-yl)-1-hydroxyethyl] cyclohexanecarboxylate]
IC50 [1]: 2.1 nM
solubility [2]: 57 µM (≈ 32.9 µg/mL)

Cc1cc(Nc2cc(C(F)F)ccn2)nc(-c2ccc([C@](C)(O)[C@H]3CC[C@H](C(=O)OC[N+]4(C)CCN(C)CC4)CC3)nc2)c1 [Example 5-26, 1-{[({trans-4-[(1R)-1-(6-{[4-(difluoromethyl)pyridin-2-yl]amino}-4-methyl-2,3′-bipyridin-6′-yl)-1-hydroxyethyl]cyclohexyl}carbonyl)oxy]methyl}-1,4-dimethylpiperazin-1-ium]
IC50 [1]: 2 nM
solubility [2]: 68 µM

Cc1cc(Nc2cc(C(F)F)ccn2)nc(-c2ccc([C@](C)(O)[C@H]3CC[C@H](C(=O)OC(C)OC(=O)c4cnn(C)c4)CC3)nc2)c1 (stereo partly drawn) [Example 3-2, 1-[({Trans-4-[(1R)-1-(6-{[4-(difluoromethyl)pyridin-2-yl]amino}-4-methyl-2,3′-bipyridin-6′-yl)-1-hydroxyethyl]cyclohexyl}carbonyl)oxy]ethyl 1-methyl-1H-pyrazole-4-carboxylate]
IC50 [1]: 1.9 nM

CCOCCOCCOC(=O)OC(C)OC(=O)[C@H]1CC[C@H]([C@@](C)(O)c2ccc(-c3cc(C)cc(Nc4cc(C(F)F)ccn4)n3)cn2)CC1 (stereo partly drawn) [Example 2-15, 1-methyl-3-oxo-2,4,7,10-tetraoxadodec-1-yl trans-4-[(1R)-1-(6-{[4-(difluoromethyl)pyridin-2-yl]amino}-4-methyl-2,3′-bipyridin-6′-yl)-1-hydroxyethyl]cyclo hexanecarboxylate]
IC50 [1]: 32.9 nM

CC(=O)N[C@@H](CC(C)C)C(=O)OCOC(=O)[C@H]1CC[C@H]([C@@](C)(O)c2ccc(-c3cc(C)cc(Nc4cc(C(F)F)ccn4)n3)cn2)CC1 [Example 3-7, [({trans-4-[(1R)-1-(6-{[4-(difluoromethyl)pyridin-2-yl]amino}-4-methyl-2,3′-bipyridin-6′-yl)-1-hydroxyethyl]cyclohexyl}carbonyl)oxy]methyl N-acetyl-L-leucinate]
IC50 [1]: 12.7 nM

Cc1cc(Nc2cc(C(F)F)ccn2)nc(-c2ccc([C@](C)(O)[C@H]3CC[C@H](C(=O)OC[C@@H](O)CO)CC3)nc2)c1 [Example 1-3, (2S)-2,3-Dihydroxypropyl trans-4-[(1R)-1-(6-{[4-(difluoromethyl)pyridin-2-yl]amino}-4-methyl-2,3′-bipyridin-6′-yl)-1-hydroxyethyl]cyclohexanecarboxylate]
IC50 [1]: 2.5 nM

Cc1cc(Nc2cc(C(F)F)ccn2)nc(-c2ccc([C@](C)(O)[C@H]3CC[C@H](C(=O)OCOC(=O)c4cnn(C)c4)CC3)nc2)c1 [Example 3-8, [({trans-4-[(1R)-1-(6-{[4-(difluoromethyl)pyridin-2-yl]amino}-4-methyl-2,3′-bipyridin-6′-yl)-1-hydroxyethyl]cyclohexyl}carbonyl)oxy]methyl 1-methyl-1H-pyrazole-4-carboxylate]
IC50 [1]: 8.3 nM

Cc1cc(Nc2cc(C(F)F)ccn2)nc(-c2ccc([C@](C)(O)[C@H]3CC[C@H](C(=O)OCOC(=O)CO)CC3)nc2)c1 [Example 3-5, [(hydroxyacetyl)oxy] methyl trans-4-[(1R)-1-(6-{[4-(difluoromethyl)pyridin-2-yl]amino}-4-methyl-2,3′-bipyridin-6′-yl)-1-hydroxyethyl]cyclohexane carboxylate]
IC50 [1]: < 0.5 nM

Cc1cc(Nc2cc(C(F)F)ccn2)nc(-c2ccc([C@](C)(O)[C@H]3CC[C@H](C(=O)OCOC(=O)OCCOCc4ccccc4)CC3)nc2)c1 [Example 2-3, ({[2-(benzyloxy)ethoxy]carbonyl}oxy) methyl trans-4-[(1R)-1-(6-{[4-(difluoromethyl)pyridin-2-yl]amino}-4-methyl-2,3′-bipyridin-6′-yl)-1-hydroxyethyl]cyclo hexanecarboxylate]
IC50 [1]: 6.2 nM

Cc1cc(Nc2cc(C(F)F)ccn2)nc(-c2ccc([C@](C)(O)[C@H]3CC[C@H](C(=O)OCn4ccnc4)CC3)nc2)c1 [Example 6-4, 1H-imidazol-1-ylmethyl trans-4-[(1R)-1-(6-{[4-(difluoromethyl)pyridin-2-yl]amino}-4-methyl-2,3′-bipyridin-6′-yl)-1-hydroxyethyl]cyclohexanecarboxylate]
solubility [2]: 156 µM (≈ 87.8 µg/mL)

Cc1cc(Nc2cc(C(F)F)ccn2)nc(-c2ccc([C@](C)(O)[C@H]3CC[C@H](C(=O)OC[N+]4(C)CCN(CCO)CC4)CC3)nc2)c1 [Example 5-28, 1-{[({trans-4-[(1R)-1-(6-{[4-(difluoromethyl)pyridin-2-yl]amino}-4-methyl-2,3′-bipyridin-6′-yl)-1-hydroxyethyl]cyclohexyl}carbonyl)oxy]methyl}-4-(2-hydroxyethyl)-1-methylpiperazin-1-ium]
IC50 [1]: 2.9 nM

Cc1cc(Nc2cc(C(F)F)ccn2)nc(-c2ccc([C@](C)(O)[C@H]3CC[C@H](C(=O)OC[C@H]4OC(O)[C@H](O)[C@@H](O)[C@@H]4O)CC3)nc2)c1 (stereo partly drawn) [Example 1-4, 6-O-({trans-4-[(1R)-1-(6-{[4-(difluoromethyl)pyridin-2-yl]amino}-4-methyl-2,3′-bipyridin-6′-yl)-1-hydroxyethyl]cyclohexyl}carbonyl)-D-glucopyranose]
IC50 [1]: 0.8 nM

Cc1cc(Nc2cc(C(F)F)ccn2)nc(-c2ccc([C@](C)(O)[C@H]3CC[C@H](C(=O)OC(C)OC(=O)c4cnn(C)c4)CC3)nc2)c1 (single isomer, unassigned) [Example 3-2b]
IC50 [1]: 22.4 nM

CCOCCOCCOCCOC(=O)OCOC(=O)[C@H]1CC[C@H]([C@@](C)(O)c2ccc(-c3cc(C)cc(Nc4cc(C(F)F)ccn4)n3)cn2)CC1 [Example 2-5, 3-oxo-2,4,7,10,13-pentaoxapentadec-1-yl trans-4-[(1R)-1-(6-{[4-(difluoromethyl)pyridin-2-yl]amino}-4-methyl-2,3′-bipyridin-6′-yl)-1-hydroxyethyl]cyclo hexanecarboxylate]
IC50 [1]: 7.5 nM

CCCC[N+](CCCC)(CCCC)COC(=O)[C@H]1CC[C@H]([C@@](C)(O)c2ccc(-c3cc(C)cc(Nc4cc(C(F)F)ccn4)n3)cn2)CC1 [Example 5-4, N,N-dibutyl-N-{[({trans-4-[(1R)-1-(6-{[4-(difluoromethyl)pyridin-2-yl]amino}-4-methyl-2,3′-bipyridin-6′-yl)-1-hydroxyethyl]cyclohexyl}carbonyl)oxy]methyl}butan-1-aminium]
IC50 [1]: 1.1 nM

CSCCOC(=O)[C@H]1CC[C@H]([C@@](C)(O)c2ccc(-c3cc(C)cc(Nc4cc(C(F)F)ccn4)n3)cn2)CC1 [Example 1-7, 2-(methylsulfanyl)ethyl trans-4-[(1R)-1-(6-{[4-(difluoromethyl)pyridin-2-yl]amino}-4-methyl-2,3′-bipyridin-6′-yl)-1-hydroxyethyl] cyclohexanecarboxylate]
IC50 [1]: 18.2 nM

Cc1cc(Nc2cc(C(F)F)ccn2)nc(-c2ccc([C@](C)(O)[C@H]3CC[C@H](C(=O)OCC[N+](C)(C)C)CC3)nc2)c1 [Example 1-10, 2-[({trans-4-[(1R)-1-(6-{[4-(difluoromethyl)pyridin-2-yl]amino}-4-methyl-2,3′-bipyridin-6′-yl)-1-hydroxyethyl]cyclohexyl}carbonyl)oxy]-N,N,N-trimethylethanaminium]
IC50 [1]: 1.7 nM
